Reference: patent US20120270237A9, “METHODS FOR THE IDENTIFICATION OF KINASE INTERACTING MOLECULES AND FOR THE PURIFICATION OF KINASE PROTEINS” (Cellzone AG, priority 2009, published 2012)

Tests used:
TGFbR1 = TGFbR1 (Homo sapiens, UniProt P36897); assay: Kinobeads competition binding, HeLa Placenta lysate mix; parameters: kinases from mixed HeLa placenta lysates; endogenous in cells; host or cells: mixed lysate of HeLa cells and placenta tissue; conditions: 10 μM free compound
Description: (§1) To one aliquot of cell lysate 10 μM of the free compound (FIG. 3, CZC31326) was added and allowed to bind to proteins in the lysate. Then the affinity matrix with the immobilized compound was added to capture proteins that were not interacting with the previously added free compound. Beads were separated from the lysate and bead bound proteins were eluted in SDS sample buffer and subsequently separated by SDS-Polyacrylamide gel electrophoresis (FIG. 10). Suitable gel bands were cut out and subjected to in-gel proteolytic digestion with trypsin. The second lysate aliquot was processed identically, however no free compound was added (DMSO solvent control). Peptides originating from samples 1 and 2 were labeled with iTRAQ reagents (iTRAQ 114 and iTRAQ 117) and the combined samples were analyzed with a nano-flow liquid chromatography system coupled online to a tandem mass spectrometer (LC-MS/MS) experiment followed by iTRAQ reporter ion quantification in the MS/MS spectra as described in Example 2.

TEC = biological target: T1, TEC (Homo sapiens, UniProt P42680); assay: as above; parameters: kinases from mixed HeLa placenta lysates; endogenous in cells; host or cells: mixed lysate of HeLa cells and placenta tissue; conditions: 10 μM free compound
T1 sequence (P42680 1-631): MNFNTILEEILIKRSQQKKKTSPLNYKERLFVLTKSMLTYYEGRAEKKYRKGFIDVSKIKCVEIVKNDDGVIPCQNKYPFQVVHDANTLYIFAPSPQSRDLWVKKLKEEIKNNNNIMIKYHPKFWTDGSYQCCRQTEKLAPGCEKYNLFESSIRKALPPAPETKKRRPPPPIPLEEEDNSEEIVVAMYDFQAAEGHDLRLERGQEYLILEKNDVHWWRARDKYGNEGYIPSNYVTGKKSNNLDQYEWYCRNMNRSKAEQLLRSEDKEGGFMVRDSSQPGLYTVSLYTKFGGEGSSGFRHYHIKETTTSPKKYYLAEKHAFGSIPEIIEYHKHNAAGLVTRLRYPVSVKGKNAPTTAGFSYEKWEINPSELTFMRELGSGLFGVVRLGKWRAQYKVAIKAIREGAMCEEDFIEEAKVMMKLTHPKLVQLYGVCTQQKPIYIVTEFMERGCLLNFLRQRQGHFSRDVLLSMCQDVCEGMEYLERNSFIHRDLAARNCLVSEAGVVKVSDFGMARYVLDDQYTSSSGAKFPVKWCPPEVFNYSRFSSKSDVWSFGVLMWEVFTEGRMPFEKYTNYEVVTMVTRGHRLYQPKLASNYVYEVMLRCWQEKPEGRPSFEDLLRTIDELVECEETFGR
Description: as §1

Wee1 = Wee1 (Homo sapiens, UniProt P30291); assay: as above; parameters: kinases from mixed HeLa placenta lysates; endogenous in cells; host or cells: mixed lysate of HeLa cells and placenta tissue; conditions: 10 μM free compound
Sequence of Wee1 (P30291 whole entry): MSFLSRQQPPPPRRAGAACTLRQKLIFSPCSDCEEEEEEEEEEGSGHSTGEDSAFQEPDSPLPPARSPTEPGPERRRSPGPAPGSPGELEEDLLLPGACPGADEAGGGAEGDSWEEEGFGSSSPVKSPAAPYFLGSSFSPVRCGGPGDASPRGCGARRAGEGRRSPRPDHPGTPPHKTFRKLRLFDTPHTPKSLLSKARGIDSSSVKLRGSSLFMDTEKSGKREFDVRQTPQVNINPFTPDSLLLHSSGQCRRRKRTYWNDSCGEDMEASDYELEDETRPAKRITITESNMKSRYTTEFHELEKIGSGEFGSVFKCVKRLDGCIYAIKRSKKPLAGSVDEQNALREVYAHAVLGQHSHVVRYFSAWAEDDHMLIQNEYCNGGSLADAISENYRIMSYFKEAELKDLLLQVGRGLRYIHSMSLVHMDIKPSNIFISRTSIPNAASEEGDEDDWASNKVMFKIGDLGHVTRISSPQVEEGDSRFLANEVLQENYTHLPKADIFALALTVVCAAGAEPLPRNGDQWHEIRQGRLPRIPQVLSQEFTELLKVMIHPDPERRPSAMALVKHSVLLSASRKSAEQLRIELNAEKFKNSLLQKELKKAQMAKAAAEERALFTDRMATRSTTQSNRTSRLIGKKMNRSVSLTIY
Description: as §1

ULK3 = biological target: T2, ULK3 (Homo sapiens, UniProt Q6PHR2); assay: as above; parameters: kinases from mixed HeLa placenta lysates; endogenous in cells; host or cells: mixed lysate of HeLa cells and placenta tissue; conditions: 10 μM free compound
T2 sequence (Q6PHR2 1-472): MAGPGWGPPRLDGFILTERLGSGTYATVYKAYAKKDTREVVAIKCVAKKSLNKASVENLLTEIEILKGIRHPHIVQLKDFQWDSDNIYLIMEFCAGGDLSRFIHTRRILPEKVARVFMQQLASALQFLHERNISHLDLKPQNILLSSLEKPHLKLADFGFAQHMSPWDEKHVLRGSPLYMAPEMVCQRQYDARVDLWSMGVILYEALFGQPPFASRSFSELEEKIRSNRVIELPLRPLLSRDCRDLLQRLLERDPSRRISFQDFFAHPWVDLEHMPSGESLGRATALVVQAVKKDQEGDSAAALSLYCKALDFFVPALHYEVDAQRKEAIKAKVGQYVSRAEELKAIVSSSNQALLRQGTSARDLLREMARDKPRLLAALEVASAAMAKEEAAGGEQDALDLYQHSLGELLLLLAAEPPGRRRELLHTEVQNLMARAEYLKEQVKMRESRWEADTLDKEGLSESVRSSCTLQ
Description: as §1

YES = YES (Homo sapiens, UniProt P07947); assay: as above; parameters: kinases from mixed HeLa placenta lysates; endogenous in cells; host or cells: mixed lysate of HeLa cells and placenta tissue; conditions: 10 μM free compound
Sequence of YES (P07947 whole entry): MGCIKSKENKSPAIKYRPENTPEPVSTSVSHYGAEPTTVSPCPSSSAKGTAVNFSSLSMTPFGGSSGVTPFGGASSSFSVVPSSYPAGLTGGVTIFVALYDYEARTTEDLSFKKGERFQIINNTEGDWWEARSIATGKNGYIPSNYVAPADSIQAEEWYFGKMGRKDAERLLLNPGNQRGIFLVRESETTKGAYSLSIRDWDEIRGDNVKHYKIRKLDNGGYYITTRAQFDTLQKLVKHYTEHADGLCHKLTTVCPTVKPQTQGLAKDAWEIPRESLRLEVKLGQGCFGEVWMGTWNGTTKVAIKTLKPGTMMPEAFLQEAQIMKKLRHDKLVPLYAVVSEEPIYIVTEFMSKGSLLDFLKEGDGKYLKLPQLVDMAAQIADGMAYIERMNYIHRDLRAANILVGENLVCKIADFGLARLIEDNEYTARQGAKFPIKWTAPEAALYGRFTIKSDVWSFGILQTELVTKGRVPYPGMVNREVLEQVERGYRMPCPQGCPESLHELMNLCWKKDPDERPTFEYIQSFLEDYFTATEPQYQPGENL
Description: as §1

NuaK2 = biological target: T3, NuaK2 (Homo sapiens, UniProt Q9H093); assay: Kinobeads competition binding, L-363 cell lysate; conditions: 10 μM free compound, L-363 lysate
T3 construct: capturing and identification of kinases from L-363 cell lysate; endogenous in cells; host or cells: L-363 (DSMZ ACC49), treated with MG132 before harvest
T3 sequence (Q9H093 whole entry): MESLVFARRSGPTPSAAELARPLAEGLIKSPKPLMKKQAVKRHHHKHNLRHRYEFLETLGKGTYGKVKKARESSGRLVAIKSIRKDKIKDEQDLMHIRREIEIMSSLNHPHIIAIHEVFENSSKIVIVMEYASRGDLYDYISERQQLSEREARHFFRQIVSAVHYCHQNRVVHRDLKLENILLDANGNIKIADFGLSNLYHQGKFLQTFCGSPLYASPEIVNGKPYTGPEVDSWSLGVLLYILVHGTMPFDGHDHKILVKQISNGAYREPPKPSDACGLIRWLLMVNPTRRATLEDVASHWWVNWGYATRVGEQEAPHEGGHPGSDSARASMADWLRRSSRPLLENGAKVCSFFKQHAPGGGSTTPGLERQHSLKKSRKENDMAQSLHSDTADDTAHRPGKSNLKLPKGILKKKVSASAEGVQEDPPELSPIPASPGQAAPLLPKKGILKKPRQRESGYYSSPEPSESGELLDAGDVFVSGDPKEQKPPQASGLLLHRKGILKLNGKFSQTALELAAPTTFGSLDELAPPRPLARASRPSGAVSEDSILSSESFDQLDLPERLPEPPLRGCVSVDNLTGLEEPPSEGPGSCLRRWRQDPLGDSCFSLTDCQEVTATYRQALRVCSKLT
Description: as §1, with “8).” for “10).”
(§2) For this experiment the human plasma cell leukaemia line L-363 was used (German Collection of Microorganisms and Cell Cultures, DSMZ number ACC49, Braunschweig, Germany). Cells were treated for three hours with 20 μM of the proteasome inhibitor MG132 (Z-Leu-Leu-Leu-al, Sigma C2211) prior to cell harvesting.

NIK = biological target: T4, NIK (Homo sapiens, UniProt Q99558); assay: Kinobeads competition binding, L-363 cell lysate; conditions: 10 μM free compound, L-363 lysate
T4 construct: capturing and identification of kinases from L-363 cell lysate; endogenous in cells; host or cells: L-363 (DSMZ ACC49), treated 3 h with 20 uM MG132 before harvest
Description: as §1, with “8).” for “10).”
as §2

DRAK2 = biological target: T5, DRAK2 (Homo sapiens, UniProt O94768); assay: Kinobeads competition binding, L-363 cell lysate; conditions: 10 μM free compound, L-363 lysate
T5 construct: capturing and identification of kinases from L-363 cell lysate; endogenous in cells; host or cells: L-363 (DSMZ ACC49), treated with MG132 before harvest
T5 sequence (O94768 whole entry): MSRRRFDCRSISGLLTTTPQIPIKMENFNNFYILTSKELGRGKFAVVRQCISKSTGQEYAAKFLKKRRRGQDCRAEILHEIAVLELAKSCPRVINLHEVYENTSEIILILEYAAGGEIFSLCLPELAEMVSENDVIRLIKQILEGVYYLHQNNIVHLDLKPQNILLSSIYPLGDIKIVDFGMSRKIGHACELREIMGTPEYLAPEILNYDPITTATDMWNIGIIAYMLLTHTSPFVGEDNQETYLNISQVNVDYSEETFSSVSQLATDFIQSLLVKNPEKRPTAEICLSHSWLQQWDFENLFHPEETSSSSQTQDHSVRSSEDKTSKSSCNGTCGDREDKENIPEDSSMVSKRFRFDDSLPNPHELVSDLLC
Description: as §1, with “8).” for “10).”
as §2

PIK4Ca = biological target: T6, PIK4Ca (Homo sapiens, UniProt P42356); assay: Kinobeads competition binding, L-363 cell lysate; conditions: 10 μM free compound, L-363 lysate
T6 construct: capturing and identification of kinases from L-363 cell lysate; endogenous in cells; host or cells: L-363 (DSMZ ACC49), treated with MG132 before harvest
T6 sequence (P42356 whole entry): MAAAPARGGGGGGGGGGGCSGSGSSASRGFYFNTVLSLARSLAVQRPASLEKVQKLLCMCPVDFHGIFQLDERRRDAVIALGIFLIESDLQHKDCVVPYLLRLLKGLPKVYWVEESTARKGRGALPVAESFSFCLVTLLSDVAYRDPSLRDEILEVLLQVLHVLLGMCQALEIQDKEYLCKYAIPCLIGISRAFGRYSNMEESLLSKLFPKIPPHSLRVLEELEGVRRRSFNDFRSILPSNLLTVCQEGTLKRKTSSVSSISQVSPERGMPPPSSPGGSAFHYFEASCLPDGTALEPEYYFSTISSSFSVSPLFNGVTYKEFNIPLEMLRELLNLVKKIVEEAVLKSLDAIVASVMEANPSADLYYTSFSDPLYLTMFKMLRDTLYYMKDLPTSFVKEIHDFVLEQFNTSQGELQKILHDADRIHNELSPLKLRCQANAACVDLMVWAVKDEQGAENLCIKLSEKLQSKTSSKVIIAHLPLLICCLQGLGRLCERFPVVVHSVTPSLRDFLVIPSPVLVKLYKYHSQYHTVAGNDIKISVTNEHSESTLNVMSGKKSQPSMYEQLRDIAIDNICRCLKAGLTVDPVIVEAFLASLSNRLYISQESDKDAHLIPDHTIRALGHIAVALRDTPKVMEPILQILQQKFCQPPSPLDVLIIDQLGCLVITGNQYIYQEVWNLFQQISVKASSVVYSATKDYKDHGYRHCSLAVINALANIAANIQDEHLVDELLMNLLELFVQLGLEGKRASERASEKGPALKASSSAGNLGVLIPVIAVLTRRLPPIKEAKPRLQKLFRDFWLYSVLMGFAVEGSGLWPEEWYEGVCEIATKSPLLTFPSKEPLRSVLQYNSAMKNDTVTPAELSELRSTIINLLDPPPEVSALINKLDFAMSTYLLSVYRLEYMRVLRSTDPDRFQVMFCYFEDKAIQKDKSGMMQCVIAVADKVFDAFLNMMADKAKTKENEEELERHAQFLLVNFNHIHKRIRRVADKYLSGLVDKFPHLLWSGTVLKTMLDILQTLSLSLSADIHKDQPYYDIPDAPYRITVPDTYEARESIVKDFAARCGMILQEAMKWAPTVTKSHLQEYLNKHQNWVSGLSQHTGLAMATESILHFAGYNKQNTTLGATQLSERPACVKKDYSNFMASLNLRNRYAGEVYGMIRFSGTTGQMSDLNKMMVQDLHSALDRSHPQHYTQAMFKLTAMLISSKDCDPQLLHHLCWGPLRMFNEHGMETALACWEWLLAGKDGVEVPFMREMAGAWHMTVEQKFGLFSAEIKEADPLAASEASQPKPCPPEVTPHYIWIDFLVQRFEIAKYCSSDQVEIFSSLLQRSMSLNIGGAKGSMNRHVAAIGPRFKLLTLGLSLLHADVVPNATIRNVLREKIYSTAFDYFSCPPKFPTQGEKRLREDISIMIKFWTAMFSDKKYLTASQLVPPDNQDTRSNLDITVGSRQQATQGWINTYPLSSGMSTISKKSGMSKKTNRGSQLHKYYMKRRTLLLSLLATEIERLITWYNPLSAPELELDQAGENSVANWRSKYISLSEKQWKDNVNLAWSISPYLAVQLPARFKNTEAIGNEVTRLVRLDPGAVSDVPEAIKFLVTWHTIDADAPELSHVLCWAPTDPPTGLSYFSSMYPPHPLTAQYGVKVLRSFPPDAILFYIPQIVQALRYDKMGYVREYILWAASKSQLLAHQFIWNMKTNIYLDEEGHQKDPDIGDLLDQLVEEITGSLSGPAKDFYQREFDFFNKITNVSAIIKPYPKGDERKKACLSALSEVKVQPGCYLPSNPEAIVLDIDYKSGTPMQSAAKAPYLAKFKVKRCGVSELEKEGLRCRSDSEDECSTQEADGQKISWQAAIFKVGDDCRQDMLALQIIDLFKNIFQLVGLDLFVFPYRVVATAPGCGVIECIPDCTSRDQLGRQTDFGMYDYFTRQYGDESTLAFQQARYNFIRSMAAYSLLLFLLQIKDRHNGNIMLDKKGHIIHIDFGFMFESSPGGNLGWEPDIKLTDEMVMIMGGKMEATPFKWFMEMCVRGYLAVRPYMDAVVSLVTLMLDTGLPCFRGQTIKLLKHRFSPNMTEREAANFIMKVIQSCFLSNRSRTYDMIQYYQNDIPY
Description: as §1, with “8).” for “10).”
as §2

Sequence of TGFbR1 (P36897 34-503): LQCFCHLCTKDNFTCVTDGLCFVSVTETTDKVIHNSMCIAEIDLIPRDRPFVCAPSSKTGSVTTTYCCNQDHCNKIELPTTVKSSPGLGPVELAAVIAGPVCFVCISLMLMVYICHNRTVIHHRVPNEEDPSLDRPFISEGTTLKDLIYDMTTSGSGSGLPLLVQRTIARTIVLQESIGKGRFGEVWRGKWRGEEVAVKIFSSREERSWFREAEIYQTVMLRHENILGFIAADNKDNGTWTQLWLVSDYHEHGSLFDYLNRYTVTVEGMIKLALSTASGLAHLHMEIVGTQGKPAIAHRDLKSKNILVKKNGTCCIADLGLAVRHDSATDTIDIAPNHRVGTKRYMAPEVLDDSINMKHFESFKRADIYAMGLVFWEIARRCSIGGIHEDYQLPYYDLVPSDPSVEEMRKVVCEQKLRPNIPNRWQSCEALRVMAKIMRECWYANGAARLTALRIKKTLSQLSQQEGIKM

CS(=O)(=O)Nc1ccccc1Nc1nc(Nc2cccc(OCCN)c2)ncc1Cl [CZC31326, N-(2-(2-(3-(2-aminoethoxy)phenylamino)-5-chloropyrimidin-4-ylamino)phenyl)methanesulfonamide]
inhibition at 10 µM (TGFbR1): 90.8% | inhibition at 10 µM (TEC): 89.2% | inhibition at 10 µM (Wee1): 95.2% | Competition % (ULK3): 94.6% | inhibition at 10 µM (YES): 90.3% | Competition % (NuaK2): 96.7% | inhibition at 10 µM (NIK): 98% | inhibition at 10 µM (DRAK2): 93.3% | inhibition at 10 µM (PIK4Ca): 86%
